In PMC8228600, “Design, Synthesis, In Vitro and In Vivo Evaluation of Heterobivalent SiFAlin-Modified Peptidic Radioligands Targeting Both Integrin αvβ3 and the MC1 Receptor—Suitable for the Specific Visualization of Melanomas?” (Pharmaceuticals, 2021):
Like-named read-outs stand apart in the source and are kept apart here.

Assay: Ex vivo biodistribution in tumor-bearing nude mice (non-tumor tissues)
Conditions: male, Balb/cAnNRj-Foxn1nu/nu (nude), mouse, iv, total radioactivity, ex vivo after PET/CT scan, i.v., n = 3
Experimental: For the evaluation of the in vivo pharmacokinetics, the two most promising HBPLs—[^18F]2 with the highest affinity to both target receptors and [^18F]4 with the highest hydrophilicity and still reasonable binding affinities—were selected. For PET/CT imaging, 6-week-old male nude mice (Balb/cAnNRj-Foxn1^nu/nu) were subcutaneously injected with 5 × 10^5 B16F10 cells into the right flank and 2.0–2.5 × 10^6 U87MG cells into the left flank to generate the respective receptor-positive tumors. When the tumors reached a sufficient size for imaging, each mouse was administered 4.15 ± 2.28 MBq of [^18F]2 or 3.95 ± 2.06 MBq of [^18F]4 via the lateral tail vein under isoflurane anesthesia. To determine the receptor specificity of both peptide parts of the labeled HBPLs and their relative contribution to overall tumor uptake, blocking experiments were also performed. […] After i.v. injection of the tracers, a dynamic PET scan, followed by a CT scan, was performed. The resulting PET/CT images and time–activity curves (TACs) are depicted in Figure 6, Figure 7 and Figure 8. After completion of the diagnostic scans, the mice were sacrificed, their organs (blood, spleen, liver, kidney, pancreas, lung, heart, brain, bone, muscle, tail, tumors, stomach, colon and small intestine) were collected and measured in a γ-counter for ex vivo biodistribution (see Supplementary Materials Table S1 for detailed results).
Each male nude mouse (six weeks old) was injected subcutaneously with 5 × 10^5 B16F10 cells into the right flank and 2.0–2.5 × 10^6 U87MG cells into the left flank. The health status and tumor growth of the mice were monitored regularly until the animals could be examined after 15–21 days, depending on the tumor size. For the in vivo experiments, the ^18F-radiolabeled compound was diluted in 0.9% saline to give a final EtOH concentration of <10%. Each mouse was injected with 4.15 ± 2.28 MBq of [^18F]2 or 3.95 ± 2.06 MBq of [^18F]4 via the lateral tail vein under isoflurane anesthesia. […] Each ^18F-labeled compound was studied with or without blocking in at least three mice. Mice were measured under isoflurane anesthesia in a small PET/SPECT/CT animal imaging system. First, a dynamic PET scan was performed over 90 min and the scan was framed in 29 timeframes (10 × 1 min, 10 × 2 min, 6 × 5 min, 3 × 10 min). Images were reconstructed using 12 iterations, a maximum likelihood expectation maximization (MLEM) algorithm including corrections for scattered radiation and decay and a voxel size of 0.5 mm. All PET scans were immediately followed by CT acquisition at a voltage of 45 kV and a current of 400 μA. The images were reconstructed using the filtered back projection (FBP) algorithm with a voxel size of 250 μm. The analysis of the data, including the generation of TACs of the kidneys, liver and tumors and the MIPs, was performed via PMOD (v3.8). For ex vivo biodistribution, the mice were sacrificed directly after the PET/CT scan. Organs (blood, spleen, liver, kidneys, pancreas, lungs, heart, brain, bone, muscle, tail, tumors, stomach, colon and small intestine) were collected, weighed and their radioactivity measured in a γ-counter. The percentage injected dose per gram (% ID/g) of each tissue was calculated from the determined values, organ weights, reference values and injected activity.

Structure (SMILES): CCCC[C@H](NC(=O)CNC(=O)CNC(=O)CCOCCOCCOCCOCCOCCOCCOCCOCCOCCC(=O)NCCCN(CCCNC(=O)CCOCCOCCOCCOCCOCCOCCOCCOCCOCCC(=O)NCCCC[C@@H]1NC(=O)[C@@H](Cc2ccccc2)NC(=O)[C@H](CC(=O)O)NC(=O)CNC(=O)[C@H](CCCNC(=N)N)NC1=O)CC(=O)N[C@@H](CCCCNC(=O)CCC[N+](C)(C)Cc1ccc([Si](F)(C(C)(C)C)C(C)(C)C)cc1)C(N)=O)C(=O)N[C@H]1CC(=O)NCCCC[C@@H](C(N)=O)NC(=O)[C@H](Cc2c[nH]c3ccccc23)NC(=O)[C@H](CCCNC(=N)N)NC(=O)[C@@H](Cc2ccccc2)NC(=O)[C@H](Cc2c[nH]cn2)NC1=O [[^18F]4]
- tissue uptake at 1.5 h (blood, NDP blocking (20 μg coinjected), read-out: ID/g, blood): 2.07 ± 0.94 %ID/g
- tissue uptake at 1.5 h (blood, c(RGDyK) blocking (200 μg coinjected), read-out: ID/g, blood): 0.83 ± 0.06 %ID/g
- tissue uptake at 1.5 h (blood, double blocking (NDP + c(RGDyK)), read-out: ID/g, blood): 1 ± 0.15 %ID/g
- tissue uptake at 1.5 h (blood, without blocking, read-out: ID/g, blood): 0.59 ± 0.08 %ID/g
- tissue uptake at 1.5 h (bone, NDP blocking (20 μg coinjected), read-out: ID/g, bone): 4.61 ± 0.71 %ID/g
- tissue uptake at 1.5 h (bone, c(RGDyK) blocking (200 μg coinjected), read-out: ID/g, bone): 4.99 ± 0.71 %ID/g
- tissue uptake at 1.5 h (bone, double blocking (NDP + c(RGDyK)), read-out: ID/g, bone): 2.99 ± 0.78 %ID/g
- tissue uptake at 1.5 h (bone, without blocking, read-out: ID/g, bone): 18.1 ± 6.02 %ID/g
- tissue uptake at 1.5 h (brain, NDP blocking (20 μg coinjected), read-out: ID/g, brain): 0.19 ± 0.07 %ID/g
- tissue uptake at 1.5 h (brain, c(RGDyK) blocking (200 μg coinjected), read-out: ID/g, brain): 0.07 ± 0.02 %ID/g
- tissue uptake at 1.5 h (brain, double blocking (NDP + c(RGDyK)), read-out: ID/g, brain): 0.07 ± 0.01 %ID/g
- tissue uptake at 1.5 h (brain, without blocking, read-out: ID/g, brain): 0.1 ± 0.03 %ID/g
- tissue uptake (colon, NDP blocking (20 μg coinjected), read-out: ID/g, colon): 0.96 ± 0.13 %ID/g
- tissue uptake (colon, c(RGDyK) blocking (200 μg coinjected), read-out: ID/g, colon): 0.8 ± 0.32 %ID/g
- tissue uptake (colon, double blocking (NDP + c(RGDyK)), read-out: ID/g, colon): 0.42 ± 0.05 %ID/g
- tissue uptake (colon, without blocking, read-out: ID/g, colon): 0.77 ± 0.26 %ID/g
- tissue uptake at 1.5 h (heart, NDP blocking (20 μg coinjected), read-out: ID/g, heart): 0.73 ± 0.06 %ID/g
- tissue uptake at 1.5 h (heart, c(RGDyK) blocking (200 μg coinjected), read-out: ID/g, heart): 1.51 ± 0.57 %ID/g
- tissue uptake at 1.5 h (heart, double blocking (NDP + c(RGDyK)), read-out: ID/g, heart): 0.52 ± 0.06 %ID/g
- tissue uptake at 1.5 h (heart, without blocking, read-out: ID/g, heart): 0.56 ± 0.19 %ID/g
- tissue uptake at 1.5 h (kidneys, NDP blocking (20 μg coinjected), read-out: ID/g, kidneys): 23.1 ± 4.97 %ID/g
- tissue uptake at 1.5 h (kidneys, c(RGDyK) blocking (200 μg coinjected), read-out: ID/g, kidneys): 21.4 ± 4.04 %ID/g
- tissue uptake at 1.5 h (kidneys, double blocking (NDP + c(RGDyK)), read-out: ID/g, kidneys): 26.5 ± 6.59 %ID/g
- tissue uptake at 1.5 h (kidneys, without blocking, read-out: ID/g, kidneys): 7.72 ± 2.57 %ID/g
- tissue uptake at 1.5 h (liver, NDP blocking (20 μg coinjected), read-out: ID/g, liver): 5.16 ± 0.56 %ID/g
- tissue uptake at 1.5 h (liver, c(RGDyK) blocking (200 μg coinjected), read-out: ID/g, liver): 10.4 ± 3.65 %ID/g
- tissue uptake at 1.5 h (liver, double blocking (NDP + c(RGDyK)), read-out: ID/g, liver): 4.04 ± 1.06 %ID/g
- tissue uptake (liver, without blocking, read-out: ID/g, liver): 8.3 ± 2.77 %ID/g
- tissue uptake at 1.5 h (lung, NDP blocking (20 μg coinjected), read-out: ID/g, lung): 1.25 ± 0.06 %ID/g
- tissue uptake at 1.5 h (lung, c(RGDyK) blocking (200 μg coinjected), read-out: ID/g, lung): 2.75 ± 1.04 %ID/g
- tissue uptake at 1.5 h (lung, double blocking (NDP + c(RGDyK)), read-out: ID/g, lung): 0.88 ± 0.14 %ID/g
- tissue uptake at 1.5 h (lung, without blocking, read-out: ID/g, lung): 3.45 ± 1.15 %ID/g
- tissue uptake at 1.5 h (muscle, NDP blocking (20 μg coinjected), read-out: ID/g, muscle): 0.63 ± 0.07 %ID/g
- tissue uptake at 1.5 h (muscle, c(RGDyK) blocking (200 μg coinjected), read-out: ID/g, muscle): 1.62 ± 0.42 %ID/g
